Results published in PMC5338303, “Unveiling the Metabolic Changes on Muscle Cell Metabolism Underlying p-Phenylenediamine Toxicity” (Frontiers in Molecular Biosciences, 2017).
Like-named read-outs stand apart in the source and are kept apart here.

What was measured:
[1] = system: C2C12 cells; assay: Cell viability assay (MTT); type: cell-based, Mus musculus mouse; conditions: for IC50: read-out: IC50 (cell proliferation, MTT); for IC80: read-out: IC80 (cell proliferation, MTT)
Method: C2C12 cells from Mus musculus mouse were cultured in DMEM (Dulbecco's Modified Eagle's medium) with 10 mg/ml of streptomycin, 2 mM glutamine, 10,000 units/ml of penicillin and 10% heat-inactivated FCS, until subconfluence was reached. For biochemical characterization, C2C12 cells were cultured in DMEM, supplemented with 4 mM asparagine without glutamine, 10 mg/ml of streptomycin, 10,000 units/ml of penicillin and 10% heat-inactivated FCS.
The absorbance of MTT [3-(4,5-Dimethylthiazol-2-Yl)-2,5-Diphenyltetrazolium Bromide] dye staining of living cells was used to determine cell viability (Pachon et al., [2007]; Pachón et al., [2008]). Here, 3.5 × 10^3 C2C12 cells/well were cultured in 96 well-plates at different PPD concentrations (from 1 to 100 μg/ml). An ELISA plate reader (Tecan Sunrise MR20-301, TECAN, Austria) was used to determine the relative cell viability, the absorbance was determined at 550 nm. Cell survival rate relative to untreated cells after 24 h of treatment was used to estimate the concentrations that caused 50% (IC50) and 80% (IC80) of inhibition of C2C12 at that time.

[2] = system: C2C12 cells; assay: Cell cycle analysis (FACS, propidium iodide); type: cell-based, Mus musculus mouse; conditions: vs untreated cells
Method: Cell cycle was evaluated by measuring FACS (fluorescence-activated cell sorter) in an Epics XL flow cytometer at 488 nm (Coulter Corporation, Hialeah, FL, USA). This technique allows for the semiquantitation of DNA in each cell and permits to separate cells in G0 or G1 phase (one copy of DNA), G2 or M phase (after DNA duplication) and S phase (the amount of DNA per cell is in an intermediate state between the two previous conditions). For these measurements, C2C12 cells were cultivated in 6 well-plates (4 × 10^5 cells/well each) with 2 ml of culture medium. After 24 h of plated, PPD corresponding to IC50 and IC80 concentrations was added and cells were incubated for 24 h, in parallel, control C2C12 cells were cultured without PPD. All experiments were performed five times with two replicates for each experiment.

[3] = system: Wistar female rats; assay: Toxicity after oral administration; general appearance, behavior and signs of morbidity (Irwin test); type: in vivo, rat; design: key to Myoglobiunuria: ++ represents the presence of myoglobinuria; conditions: for Ataxic Gait / Hypotonic Gait: animals affected/group; for Hipoactivity / Piloerection: duration
Method: The study was approved by the Ethics Committee on Animal Experimentation of University of Navarra. Wistar female rats, with a body weight of 160 g ± 20% (8 weeks old), were supplied by Harlan (Harlan Laboratories, Indianapolis, IN). The animals were housed in polycarbonate cages with stainless steel covers in a room under controlled temperature conditions (22 ± 3°C), controlled relative humidity (50 ± 20%) and light (12 h light–dark cycle). Air was exchanged 15 times/h sterile food supplied by Harlan (Harlan Laboratories, Indianapolis, IN) and controlled water was available ad libitum. The rats were housed in the study room for 5 days prior to the beginning of treatment in order to allow acclimatization to the environmental conditions. Finally, three rats were randomly assigned to each studied group corresponding to different PPD doses (10, 20, 40, and 60 mg/Kg) and control (DMSO).
The animals were divided into groups of three rats at random. A control group receiving the vehicle and four groups receiving PPD at several concentrations 10, 20, 40, and 60 mg/kg at single dose were included (Figure 1). The compound was administered in a volume of 300 μl of 100% DMSO by gavage. Animals were evaluated based on general appearance, behavior and signs of morbidity using the Irwin test (Castagné et al., [2012]), immediately following administration, 30 min, 1, 2, 4, and 8 h after the administration (Figure 1). All of the animals were weighed just before the acclimatization period, before administration and 24, 48, and 72 h after administration. At the end of the observation period (24, 48, and 72 h after administration), all the animals were anesthetized and blood samples were collected from tail and retro orbital sinus and centrifuged at 2000 × g for 30 min at 4°C to recover the serum (Figure 1). The serum was frozen and stored at −20°C until determination of biochemical parameters such as urea, creatinin, Glucose, aspartate aminotransferase (AST), alanine aminotransferase (ALT) and creatine kinase (CK), lactate dehydrogenase (LDH), at 24, 48, and 72 h before sacrificed in a CO2 chamber and autopsied. All of the tissues were observed grossly. Ovaries, kidneys, liver, spleen, heart, and lung were weighed and the relative organ weights were calculated. Serum CK and LDH levels were measured.

Compound: Nc1ccc(N)cc1 [PPD, p-phenylenediamine]
- IC50 ([1]; C2C12, 24 h): 154 µM
- IC80 ([1]; C2C12, 24 h): 201 ± 8 µM
- IC50 ([1]; C2C12, 48 h): 108 ± 8 µM
- IC80 ([1]; C2C12, 48 h): 182 ± 12 µM
- IC50 ([1]; C2C12, 72 h): 59 ± 1 µM
- IC80 ([1]; C2C12, 72 h): 91 ± 7 µM
- decrease in the percentage of cells in G0/G1 phases ([2]; PPD at IC50, 24 h): 19%
- increase in the population in S phase ([2]; PPD at IC50, 24 h): 13%
- decrease in the percentage of cells in G0/G1 phases ([2]; PPD at IC80, 24 h): 32%
- increase in the population in S phase ([2]; PPD at IC80, 24 h): 28%
- Myoglobiunuria ([3]; 10 mg/kg single oral dose): ++
- Ataxic Gait ([3]; 10 mg/kg single oral dose): 0/3
- Hypotonic Gait ([3]; 10 mg/kg single oral dose): 0/3
- Hipoactivity ([3]; 10 mg/kg single oral dose): 10 h
- Piloerection ([3]; 10 mg/kg single oral dose): 2 to 4 h
- Myoglobiunuria ([3]; 20 mg/kg single oral dose): ++
- Ataxic Gait ([3]; 20 mg/kg single oral dose): 0/3
- Hypotonic Gait ([3]; 20 mg/kg single oral dose): 0/3
- Hipoactivity ([3]; 20 mg/kg single oral dose): 10 h
- Piloerection ([3]; 20 mg/kg single oral dose): 2 to 4 h
- Hipoactivity ([3]; 40 mg/kg single oral dose): 24 h
- Piloerection ([3]; 40 mg/kg single oral dose): Until death
- Ataxic Gait ([3]; 60 mg/kg single oral dose): 0/3
- Hypotonic Gait ([3]; 60 mg/kg single oral dose): 3/3
- Hipoactivity ([3]; 60 mg/kg single oral dose): 48 h
- Piloerection ([3]; 60 mg/kg single oral dose): Until death
- gait ([3]; 60 mg/kg, after 48 h, disappeared after 72 h): ataxic gait
- signs observed at lower doses ([3]; 10 and 20 mg/kg, until 10 h of treatment): depressed activity and some of they had brown color urine or myoglobinuria
- signs observed at higher doses ([3]; 40 and 60 mg/kg, until 4 h of treatment): total loss of equilibrium, hypotonic gait and piloerection
- urine color ([3]; after 24 h of treatment, disappears at 48 and 72 h): all animals had urine brown color but in absence of hematuria
- evolution of body weight ([3]; all groups, 10-60 mg/kg, up to 72 h): normal
- persistence of muscular weakness ([3]; rat, in vivo): 3 days
